Each structure is given as a SMILES string.

Usually IC50 stands for the concentration at which inhibition is half-maximal. A higher IC50 goes with weaker potency in that assay.

human MGL from HeLa cells, sequence (Q99685 whole entry): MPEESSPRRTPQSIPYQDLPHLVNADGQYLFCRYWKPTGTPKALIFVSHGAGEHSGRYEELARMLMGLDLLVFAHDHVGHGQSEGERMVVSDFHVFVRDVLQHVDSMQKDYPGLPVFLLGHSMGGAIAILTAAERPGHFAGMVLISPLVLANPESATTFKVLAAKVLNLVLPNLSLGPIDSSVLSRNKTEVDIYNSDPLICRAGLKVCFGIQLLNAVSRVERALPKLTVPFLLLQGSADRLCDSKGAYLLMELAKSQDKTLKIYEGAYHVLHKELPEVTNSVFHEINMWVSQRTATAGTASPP

The test has as its target human MGL from HeLa cells (Homo sapiens (Human), UniProt Q99685). The test can be described thus: MGL in vitro activity assay ([glycerol-1,3-3H]-oleoyl glycerol hydrolysis, activated carbon filtration). In kind it is biochemical. To be noted: 300 nM [Glycerol-1,3-3H]-oleoyl glycerol, one hour. The method in brief:
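Activity measured as tritium in the flow-through after activated carbon filtration of a 1 h reaction containing 300 nM 3H-oleoyl glycerol, compound and HeLa-derived human MGL. Compounds screened at 10 μM; IC50 series start at an empirically chosen highest concentration.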
As to `COc1cccc(C2CCC3(CC2)CN(C(=O)[C@H]2C[C@@](C)(O)C2)C3)c1C` [Example 106, ((1s,3s)-3-Hydroxy-3-methylcyclobutyl)(7-(3-methoxy-2-methylphenyl)-2-azaspiro[3.5]nonan-2-yl)methanone], the half-maximal inhibitory concentration (IC50) turned out to be 0.03 µM.

The molecule `COc1cc(C2CCC3(CC2)CN(C(=O)[C@H]2C[C@@](C)(O)C2)C3)ccc1C(F)(F)F` [Example 113, ((1s,3s)-3-Hydroxy-3-methylcyclobutyl)(7-(3-methoxy-4-(trifluoromethyl)phenyl)-2-azaspiro[3.5]nonan-2-yl)methanone] yielded an IC50 of 0.037 µM.

Turning to `COc1ccc(C2CCC3(CC2)CN(C(=O)[C@H]2C[C@@](C)(O)C2)C3)cc1C(F)(F)F` [Example 114, ((1s,3s)-3-Hydroxy-3-methylcyclobutyl)(7-(4-methoxy-3-(trifluoromethyl)phenyl)-2-azaspiro[3.5]nonan-2-yl)methanone], it took 0.065 µM to reach half-maximal inhibition (IC50).

Consider `CN(C)c1cc(C2CCC3(CC2)CN(C(=O)[C@H]2C[C@@](C)(O)C2)C3)ccc1C(F)(F)F` [Example 115, (7-(3-(Dimethylamino)-4-(trifluoromethyl)phenyl)-2-azaspiro[3.5]nonan-2-yl)((1s,3s)-3-hydroxy-3-methylcyclobutyl)methanone], for which the midpoint of inhibition, the IC50, lay at 0.017 µM. Compared with the last molecule, the IC50 is about 3.8-fold lower.

Regarding `CC(C)(C)c1cccc(C2CCC3(CC2)CN(C(=O)[C@H]2C[C@@](C)(O)C2)C3)n1` [Example 116, (7-(6-(tert-Butyl)pyridin-2-yl)-2-azaspiro[3.5]nonan-2-yl)((1s,3s)-3-hydroxy-3-methylcyclobutyl)methanone], the 50% inhibitory concentration (IC50) amounted to 0.0044 µM.

Molecule `COc1cccc(C2CCC3(CC2)CN(C(=O)[C@H]2C[C@@](C)(O)C2)C3)n1` [Example 117, ((1s,3s)-3-Hydroxy-3-methylcyclobutyl)(7-(6-methoxypyridin-2-yl)-2-azaspiro[3.5]nonan-2-yl)methanone] had an IC50 of 0.42 µM.

For `COc1ccc(C2CCC3(CC2)CN(C(=O)[C@H]2C[C@@](C)(O)C2)C3)cc1C(C)(C)C` [Example 118, (7-(3-(tert-Butyl)-4-methoxyphenyl)-2-azaspiro[3.5]nonan-2-yl)((1s,3s)-3-hydroxy-3-methylcyclobutyl)methanone], the IC50 was determined as 0.02 µM.

Take `COc1cc(C2CCC3(CC2)CN(C(=O)[C@H]2C[C@@](C)(O)C2)C3)cc(C(F)(F)F)c1` [Example 119, ((1s,3s)-3-Hydroxy-3-methylcyclobutyl)(7-(3-methoxy-5-(trifluoromethyl)phenyl)-2-azaspiro[3.5]nonan-2-yl)methanone]: the 50% inhibitory concentration (IC50) stood at 0.012 µM.

The molecule `CCOc1cc(C2CCC3(CC2)CN(C(=O)[C@H]2C[C@@](C)(O)C2)C3)cc(C(F)(F)F)c1` [Example 120, (7-(3-Ethoxy-5-(trifluoromethyl)phenyl)-2-azaspiro[3.5]nonan-2-yl)((1s,3s)-3-hydroxy-3-methylcyclobutyl)methanone] yielded a 50% inhibitory concentration (IC50) of 0.141 µM.

`CCc1cc(C)cc(C2CCC3(CC2)CN(C(=O)[C@H]2C[C@@](C)(O)C2)C3)c1` [Example 121, (7-(3-Ethyl-5-methylphenyl)-2-azaspiro[3.5]nonan-2-yl)((1s,3s)-3-hydroxy-3-methylcyclobutyl)methanone] came in with a half-inhibitory concentration (IC50) of 0.0074 µM. Against the preceding molecule, the IC50 is about 19-fold lower.

For the molecule `Cn1ncc2cc(C3CCC4(CC3)CN(C(=O)[C@H]3C[C@@](C)(O)C3)C4)ccc21` [Example 122, ((1s,3s)-3-Hydroxy-3-methylcyclobutyl)(7-(1-methyl-1H-indazol-5-yl)-2-azaspiro[3.5]nonan-2-yl)methanone], half-maximal inhibition (IC50) required 0.143 µM.

On to `CN(C)c1cc(C2CCC3(CC2)CN(C(=O)[C@H]2C[C@@](C)(O)C2)C3)cc(C(F)(F)F)c1` [Example 123, (7-(3-(Dimethylamino)-5-(trifluoromethyl)phenyl)-2-azaspiro[3.5]nonan-2-yl)((1s,3s)-3-hydroxy-3-methylcyclobutyl)methanone], for which the IC50 is 0.027 µM.

Molecule `C[C@]1(O)C[C@@H](C(=O)N2CC3(CCC(c4ccc5ccccc5n4)CC3)C2)C1` [Example 124, ((1s,3s)-3-Hydroxy-3-methylcyclobutyl)(7-(quinolin-2-yl)-2-azaspiro[3.5]nonan-2-yl)methanone] gave an IC50 of 0.227 µM.

With `C[C@]1(O)C[C@@H](C(=O)N2CC3(CCC(c4ccc5c(c4)CCC5)CC3)C2)C1` [Example 127, (7-(2,3-Dihydro-1H-inden-5-yl)-2-azaspiro[3.5]nonan-2-yl)((1s,3s)-3-hydroxy-3-methylcyclobutyl)methanone], 0.014 µM corresponded to half-maximal inhibition (IC50).

The molecule `COc1cc(C)cc(C2CCC3(CC2)CN(C(=O)[C@H]2C[C@@](C)(O)C2)C3)c1` [Example 128, ((1s,3s)-3-Hydroxy-3-methylcyclobutyl)(7-(3-methoxy-5-methylphenyl)-2-azaspiro[3.5]nonan-2-yl)methanone] registered an IC50 of 0.03 µM.

Take `COc1cc(C2CCC3(CC2)CN(C(=O)[C@H]2C[C@@](C)(O)C2)C3)ccc1C` [Example 129, ((1s,3s)-3-Hydroxy-3-methylcyclobutyl)(7-(3-methoxy-4-methylphenyl)-2-azaspiro[3.5]nonan-2-yl)methanone]: the half-maximal inhibitory concentration (IC50) stood at 0.025 µM.

On to `CC(C)c1ccc(C2CCC3(CC2)CN(C(=O)[C@H]2C[C@@](C)(O)C2)C3)cc1` [Example 130, ((1s,3s)-3-Hydroxy-3-methylcyclobutyl)(7-(4-isopropylphenyl)-2-azaspiro[3.5]nonan-2-yl)methanone], for which the IC50 stood at 0.017 µM. This IC50 and that of the molecule before are within 1.5-fold of each other.

Turning to `COc1cccc(C2CCC3(CC2)CN(C(=O)[C@H]2C[C@@](C)(O)C2)C3)c1` [Example 131, ((1s,3s)-3-Hydroxy-3-methylcyclobutyl)(7-(3-methoxyphenyl)-2-azaspiro[3.5]nonan-2-yl)methanone], the half-inhibitory concentration (IC50) is 0.032 µM.

Turning to `CCOc1cccc(C2CCC3(CC2)CN(C(=O)[C@H]2C[C@@](C)(O)C2)C3)c1` [Example 132, (7-(3-Ethoxyphenyl)-2-azaspiro[3.5]nonan-2-yl)((1s,3s)-3-hydroxy-3-methylcyclobutyl)methanone], the midpoint of inhibition, the IC50, lay at 0.041 µM.

`CC(C)c1cccc(C2CCC3(CC2)CN(C(=O)[C@H]2C[C@@](C)(O)C2)C3)c1` [Example 133, ((1s,3s)-3-Hydroxy-3-methylcyclobutyl)(7-(3-isopropylphenyl)-2-azaspiro[3.5]nonan-2-yl)methanone]: half-maximal inhibition (IC50) was put at 0.0082 µM.

`Cc1ccc(C2CCC3(CC2)CN(C(=O)[C@H]2C[C@@](C)(O)C2)C3)cc1C` [Example 134, (7-(3,4-Dimethylphenyl)-2-azaspiro[3.5]nonan-2-yl)((1s,3s)-3-hydroxy-3-methylcyclobutyl)methanone] showed an IC50 of 0.012 µM.

Turning to `CC(C)(C)c1cccc(C2CCC3(CC2)CN(C(=O)[C@H]2C[C@@](C)(O)C2)C3)c1` [Example 135, (7-(3-(tert-Butyl)phenyl)-2-azaspiro[3.5]nonan-2-yl)((1s,3s)-3-hydroxy-3-methylcyclobutyl)methanone], the IC50 is 0.0021 µM.

Molecule `Cc1ccc(C2CCC3(CC2)CN(C(=O)[C@H]2C[C@@](C)(O)C2)C3)cc1` [Example 136, ((1s,3s)-3-Hydroxy-3-methylcyclobutyl)(7-(p-tolyl)-2-azaspiro[3.5]nonan-2-yl)methanone] gave a 50% inhibitory concentration (IC50) of 0.035 µM.

In the case of `Cc1cccc(C2CCC3(CC2)CN(C(=O)[C@H]2C[C@@](C)(O)C2)C3)c1` [Example 137, ((1s,3s)-3-Hydroxy-3-methylcyclobutyl)(7-(m-tolyl)-2-azaspiro[3.5]nonan-2-yl)methanone], inhibition was half-maximal at 0.038 µM (IC50).

Turning to `Cc1ccccc1C1CCC2(CC1)CN(C(=O)[C@H]1C[C@@](C)(O)C1)C2` [Example 138, ((1s,3s)-3-Hydroxy-3-methylcyclobutyl)(7-(o-tolyl)-2-azaspiro[3.5]nonan-2-yl)methanone], the IC50 stood at 0.047 µM.

For `CC(C)(C)c1cc(C2CCC3(CC2)CN(C(=O)[C@H]2C[C@@](C)(O)C2)C3)ccn1` [Example 139, (7-(2-(tert-Butyl)pyridin-4-yl)-2-azaspiro[3.5]nonan-2-yl)((1s,3s)-3-hydroxy-3-methylcyclobutyl)methanone], the midpoint of inhibition, the IC50, lay at 0.167 µM.

Consider `COc1cc(C2CCC3(CC2)CN(C(=O)[C@H]2C[C@@](C)(O)C2)C3)ccc1C1CC1` [Example 140, (7-(4-Cyclopropyl-3-methoxyphenyl)-2-azaspiro[3.5]nonan-2-yl)((1s,3s)-3-hydroxy-3-methylcyclobutyl)methanone], for which half-maximal inhibition (IC50) was put at 0.033 µM.

In turn, `COc1cc(C2CC2)cc(C2CCC3(CC2)CN(C(=O)[C@H]2C[C@@](C)(O)C2)C3)c1` [Example 141, (7-(3-Cyclopropyl-5-methoxyphenyl)-2-azaspiro[3.5]nonan-2-yl)((1s,3s)-3-hydroxy-3-methylcyclobutyl)methanone] returned a half-maximal inhibitory concentration (IC50) of 0.02 µM.

`COc1ccc(C2CCC3(CC2)CN(C(=O)[C@H]2C[C@@](C)(O)C2)C3)cc1C1CC1` [Example 142, (7-(3-Cyclopropyl-4-methoxyphenyl)-2-azaspiro[3.5]nonan-2-yl)((1s,3s)-3-hydroxy-3-methylcyclobutyl)methanone] gave an IC50 of 0.121 µM.

For the molecule `Cc1cc(C2CC2)cc(C2CCC3(CC2)CN(C(=O)[C@H]2C[C@@](C)(O)C2)C3)c1` [Example 143, (7-(3-Cyclopropyl-5-methylphenyl)-2-azaspiro[3.5]nonan-2-yl)((1s,3s)-3-hydroxy-3-methylcyclobutyl)methanone], the half-maximal inhibitory concentration (IC50) worked out at 0.0045 µM.

In the case of `CCc1cccc(C2CCC3(CC2)CN(C(=O)[C@H]2C[C@@](C)(O)C2)C3)c1OC` [Example 144, (7-(3-Ethyl-2-methoxyphenyl)-2-azaspiro[3.5]nonan-2-yl)((1s,3s)-3-hydroxy-3-methylcyclobutyl)methanone], 0.016 µM corresponded to half-maximal inhibition (IC50). Compared with the last molecule, the IC50 is about 3.6-fold higher.

`CCc1cc(OC)cc(C2CCC3(CC2)CN(C(=O)[C@H]2C[C@@](C)(O)C2)C3)c1` [Example 145, (7-(3-Ethyl-5-methoxyphenyl)-2-azaspiro[3.5]nonan-2-yl)((1s,3s)-3-hydroxy-3-methylcyclobutyl)methanone] returned an IC50 of 0.031 µM.

On to `CCc1cc(C2CCC3(CC2)CN(C(=O)[C@H]2C[C@@](C)(O)C2)C3)cc(C(F)(F)F)c1` [Example 146, (7-(3-Ethyl-5-(trifluoromethyl)phenyl)-2-azaspiro[3.5]nonan-2-yl)((1s,3s)-3-hydroxy-3-methylcyclobutyl)methanone], for which 0.0046 µM corresponded to half-maximal inhibition (IC50).

Source of the values: patent publication US11802111B2, “Cyclobutyl amide monoacylglycerol lipase modulators” (Janssen Pharmaceutica NV, priority 2020, dated 2023).
